Reference: US20140057915A1, “KINASE INHIBITORS” (TOPIVERT PHARMA LIMITED, priority 2012, published 2014)
Where two headings read alike, the source gives them in different places.

Tests used:
B-Raf = B-Raf (Homo sapiens, UniProt P15056); experiment: Enzyme binding assay (Kinomescan)
Experimental: Enzyme Binding Assays (Kinomescan)
The kinase enzyme binding activities of compounds disclosed herein were determined using a proprietary assay which measures active site-directed competition binding to an immobilized ligand (Fabian, M. A. et al., Nature Biotechnol., 2005, 23:329-336). These assays were conducted by DiscoverX (formerly Ambit; San Diego, Calif.). The percentage inhibition produced by incubation with a test compound is calculated relative to the non-inhibited control.

[1] = tested on: intestinal mucosa biopsies from the inflamed regions of the colon of IBD patients; experiment: Human biopsy assay (cytokine release from intestinal mucosa biopsies of IBD/UC patients); format: cell-based; conditions: in vitro
Experimental: Intestinal mucosa biopsies are obtained from the inflamed regions of the colon of IBD patients. The biopsy material is cut into small pieces (2-3 mm) and placed on steel grids in an organ culture chamber at 37° C. in a 5% CO2/95% O2 atmosphere in serum-free media. DMSO control or test compounds at the desired concentration are added to the tissue and incubated for 24 hr in the organ culture chamber. The supernatant is harvested for determination of IL-6, IL-8, IL-1β and TNFα levels by R&D ELISA.

BDF1 mice = experiment: TNBS-induced colitis in mice; format: in vivo, mouse; conditions: for inflammatory cell infiltrate in the reticular and lamina propria zones / activity in the in vivo model of colonic inflammation (histopathology analysis): TNBS; for activity in the in vivo model of colonic inflammation (histopathology analysis): 2 days; for ulcer grade and epithelial repair compared to the vehicle control: dosed orally at 5 mg/kg
Experimental: (C) TNBS-Induced Colitis in Mice […] On Day 0 of the study TNBS (200 μL) is administered intra-colonically via a plastic catheter followed by BID dosing of the vehicle, reference or test compound for 2 or 4 days. During the study animals are weighed every day and stool observations are made and recorded as a score, based on stool consistency. At the time of sacrifice on Day 2 (or Day 4) the large intestine is removed and the length and weight recorded. Sections of the colon are taken for either MPO analysis to determine neutrophil infiltration or for histopathology involving scoring to determine disease severity.

[2] = Cryopreserved hepatocyte stability; format: in vitro ADME; conditions: arithmetic mean of two experiments; for hepatocyte CLint at 0.1 μM: read-out: Mean intrinsic clearance
Experimental: Cryopreserved Hepatocyte Stability
• Hepatocyte stability assays were performed with incubations of test compounds (0.1 μM initial concentration, n=2) carried out with pooled human, dog and rat cryopreserved hepatocytes from Celsis (Lot numbers RRW, KLI and WAP, respectively) at a cell density of 0.5 million cells/mL. The incubations were performed at 37° C. with 100 μL samples taken from the incubation, at 0, 10, 20, 45 and 90 minutes, and reactions terminated by addition of 100 μL of acetonitrile containing carbamazepine as analytical internal standard. […] Half-life values were calculated from the relationship
T1/2(min)=−0.693/λ • where λ was the slope of the Ln concentration vs time curve. • Standard compounds testosterone, midazolam and 4-methylumbelliferone are included in the assay design. These compounds give an indication of the metabolic capacity of the cryopreserved preparations for both Phase I and Phase II reactions. • In vitro intrinsic clearance (CIint), as μL/min/million cells was calculated by applying the following formula to the half-life values:
CIint(Tissue Clearance) mL/min/kg=[0.693/t½(min)]×[1/hepatocyte concentration(million cells/mL)]×[million cells/g liver]×[g liver/kg body weight]
CIint(Hepatic clearance) mL/min/kg=hepatic blood flow×CIint/(hepatic blood flow+CIint)
Hepatic extraction ratio(Eh)=CIint(Hepatic clearance) mL/min/kg/hepatic blood flow(mL/min/kg)

[3] = Hepatic microsomal stability; format: in vitro ADME; conditions: arithmetic mean of two experiments; for microsomal CLint at 0.1 μM: pooled liver microsomes, read-out: Mean intrinsic clearance
Experimental: (§1) Hepatic Microsomal Stability
(§2) • Microsomal stability assays were performed with incubations of test compounds at 0.1 μM (n=2, final DMSO concentration 0.25%), and carried out using pooled human, dog and rat hepatic microsomes from Xenotech (Lots 1210153, 0810143 and 1110042, respectively) at 0.25 mg protein/mL in the presence of co-factor, NADPH. The incubations were performed at 37° C. with 100 μL aliquots taken from the incubation, at 0, 2, 5, 10 and 20 minutes and reactions terminated by addition of 100 μL of acetonitrile containing carbamazepine as analytical internal standard. […] Half-life values were calculated from the relationship
(§3) where λ was the slope of the Ln concentration vs time curve. • The in vitro intrinsic clearance, CIint (mL/min/kg), was calculated and scaled to hepatic extraction ratios using the following scaling parameters and formulae.
(§4) CIint(tissue clearance) mL/min/kg=[0.693/t½(min)]×[1/microsomal protein concentration mg/mL]×[mg microsomes/g liver]×[g liver/kg body weight]
(§5) CIint(hepatic clearance) mL/min/kg=hepatic blood flow×CIint/(hepatic blood flow+CIint)
(§6) Hepatic extraction ratio(Eh)=CIint(hepatic clearance) mL/min/kg/hepatic blood flow(mL/min/kg)

[4] = target: T1, human ether a go-go (hERG) channel (Homo sapiens, UniProt Q12809); experiment: hERG inhibition (IonWorks patch clamp electrophysiology); format: cell-based; conditions: maximum final assay concentration 3 μM
T1 construct: a Chinese Hamster Lung cell line stably expressing the full length hERG channel
T1 sequence (Q12809 whole entry): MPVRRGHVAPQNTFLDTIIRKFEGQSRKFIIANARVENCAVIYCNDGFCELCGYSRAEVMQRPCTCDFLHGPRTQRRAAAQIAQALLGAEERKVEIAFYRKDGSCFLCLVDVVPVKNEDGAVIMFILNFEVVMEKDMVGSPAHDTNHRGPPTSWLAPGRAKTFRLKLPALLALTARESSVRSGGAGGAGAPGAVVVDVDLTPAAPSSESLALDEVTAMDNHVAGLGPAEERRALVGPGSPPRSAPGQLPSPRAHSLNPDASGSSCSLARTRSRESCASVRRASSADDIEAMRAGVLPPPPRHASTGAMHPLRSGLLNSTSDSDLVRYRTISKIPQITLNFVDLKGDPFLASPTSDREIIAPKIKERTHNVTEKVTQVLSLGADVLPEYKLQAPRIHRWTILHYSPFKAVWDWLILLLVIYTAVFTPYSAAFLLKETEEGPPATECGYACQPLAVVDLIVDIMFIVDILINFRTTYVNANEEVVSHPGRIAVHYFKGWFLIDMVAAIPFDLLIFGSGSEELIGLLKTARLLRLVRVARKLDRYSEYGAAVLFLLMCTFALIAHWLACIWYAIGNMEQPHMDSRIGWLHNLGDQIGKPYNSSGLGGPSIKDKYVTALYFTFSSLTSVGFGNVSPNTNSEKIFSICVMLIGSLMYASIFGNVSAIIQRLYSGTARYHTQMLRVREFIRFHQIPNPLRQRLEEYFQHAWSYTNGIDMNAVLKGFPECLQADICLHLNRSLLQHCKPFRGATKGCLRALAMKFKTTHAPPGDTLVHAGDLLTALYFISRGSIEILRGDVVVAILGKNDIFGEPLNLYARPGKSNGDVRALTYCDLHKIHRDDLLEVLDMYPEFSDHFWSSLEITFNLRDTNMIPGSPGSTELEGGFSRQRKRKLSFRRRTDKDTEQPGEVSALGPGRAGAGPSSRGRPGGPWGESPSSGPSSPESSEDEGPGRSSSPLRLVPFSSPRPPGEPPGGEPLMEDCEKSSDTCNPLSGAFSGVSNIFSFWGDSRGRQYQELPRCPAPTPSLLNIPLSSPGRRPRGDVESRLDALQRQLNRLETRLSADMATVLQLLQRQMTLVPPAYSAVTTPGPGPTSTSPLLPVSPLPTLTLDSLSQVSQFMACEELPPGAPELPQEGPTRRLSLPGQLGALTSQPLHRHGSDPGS
Experimental: Eight-point concentration curves were generated using serial 3-fold dilutions from the maximum final assay concentration (3 μM). Electrophysiological recordings were made from a Chinese Hamster Lung cell line stably expressing the full length hERG channel. Single cell ionic currents were measured in the perforated patch clamp configuration (100 μg/mL) amphotericin) at room temperature (21-23° C.) using an IonWorks Quattro instrument. The internal solution contained (mM): 140 KCl, 1 MgCl2, 1 EGTA, 20 HEPES and was buffered to pH 7.3. The external solution contained (mM):138 NaCl, 2.7 KCl, 0.9 CaCl2, 0.5 MgCl2, 8 Na2HPO4, 1.5 KH2PO4, also buffered to pH 7.3. Cells were clamped at a holding potential of −70 mV for 30 s and then stepped to +40 mV for 1 s. This was followed by a hyperpolarising step of 1s to −30 mV to evoke the hERG tail current. This sequence was repeated 5 times at a frequency of 0.25 Hz. Currents were measured from the tail step at the 5th pulse, and referenced to the holding current. Compounds were then incubated for 6-7 minutes prior to a second measurement of the hERG signal using an identical pulse train. Eight-point concentration curves were generated using serial 3-fold dilutions from the maximum final assay concentration (3 μM).

[5] = Hepatic microsomal stability; format: in vitro ADME, human; conditions: for Mean hepatic extraction ratio (Eh) / microsomal CLint at 0.1 μM: human hepatic microsomes, arithmetic mean of two experiments; for microsomal CLint at 0.1 μM: pooled liver microsomes, read-out: Mean intrinsic clearance; for hepatic clearance: summary of Tables 9a and 9b (microsomes and hepatocytes; human, dog, rat)
Experimental: as §1, §2, §3, §4, §5, §6

[6] = human cryopreserved hepatocytes
[7] = pooled cryopreserved hepatocytes, dog cryopreserved hepatocytes
[8] = pooled cryopreserved hepatocytes, rat cryopreserved hepatocytes
[9] = pooled cryopreserved human hepatocytes

B-Raf, sequence (P15056 whole entry): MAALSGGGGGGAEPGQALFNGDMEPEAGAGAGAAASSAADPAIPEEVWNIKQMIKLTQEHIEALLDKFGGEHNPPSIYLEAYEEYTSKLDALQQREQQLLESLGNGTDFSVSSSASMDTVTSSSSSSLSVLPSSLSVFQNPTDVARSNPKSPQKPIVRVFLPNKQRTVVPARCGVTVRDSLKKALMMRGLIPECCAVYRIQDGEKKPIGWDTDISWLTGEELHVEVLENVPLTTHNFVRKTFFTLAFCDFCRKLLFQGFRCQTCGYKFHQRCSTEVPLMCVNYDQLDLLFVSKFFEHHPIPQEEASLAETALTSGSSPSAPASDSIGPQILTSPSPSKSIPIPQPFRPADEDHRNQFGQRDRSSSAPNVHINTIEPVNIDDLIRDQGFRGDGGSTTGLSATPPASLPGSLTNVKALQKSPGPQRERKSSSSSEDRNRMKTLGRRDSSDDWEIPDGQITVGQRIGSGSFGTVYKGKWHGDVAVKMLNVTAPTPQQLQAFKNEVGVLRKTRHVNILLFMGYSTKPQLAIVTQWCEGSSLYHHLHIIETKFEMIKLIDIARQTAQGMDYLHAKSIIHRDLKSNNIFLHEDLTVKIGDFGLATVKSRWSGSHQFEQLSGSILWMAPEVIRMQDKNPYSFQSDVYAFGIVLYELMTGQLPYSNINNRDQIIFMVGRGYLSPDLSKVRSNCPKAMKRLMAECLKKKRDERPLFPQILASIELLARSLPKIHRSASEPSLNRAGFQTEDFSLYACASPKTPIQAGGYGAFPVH

Row | inhibition at 0.5 µM (B-Raf; read-out: % Inhibition of kinase binding at 500 nM, B-Raf) [%] | SMILES | IL-1b, IL-6 and IL-8 release from biopsies of UC patients [1] | inflammatory cell infiltrate in the reticular and lamina propria zones (BDF1 mice) | activity in the in vivo model of colonic inflammation (histopathology analysis) (BDF1 mice) | ulcer grade and epithelial repair compared to the vehicle control (BDF1 mice) | Mean hepatic extraction ratio (Eh) ([2]; dog cryopreserved hepatocytes) | Mean hepatic extraction ratio (Eh) [2, 6] | hepatocyte CLint at 0.1 μM [2, 7] [µL/min/1e6 cells] | hepatocyte CLint at 0.1 μM [2, 8] [µL/min/1e6 cells] | hepatocyte CLint at 0.1 μM [2, 9] [µL/min/1e6 cells] | Mean hepatic extraction ratio (Eh) ([2]; rat cryopreserved hepatocytes) | effect on the binding of the kinase B-Raf to its standard ligand (B-Raf; KINOMEscan) | Mean hepatic extraction ratio (Eh) ([3]; dog hepatic microsomes) | microsomal CLint at 0.1 μM ([3]; dog hepatic microsomes) [µL/min/mg] | microsomal CLint at 0.1 μM ([3]; rat hepatic microsomes) [µL/min/mg] | Mean hepatic extraction ratio (Eh) ([3]; rat hepatic microsomes) | IC50 [4] [µM] | Mean hepatic extraction ratio (Eh) [5] | microsomal CLint at 0.1 μM [5] [µL/min/mg] | hepatic clearance [5]
1 | 29 | COc1cc(Nc2nccc(Oc3ccc(NC(=O)Nc4cc(C(C)C)nn4-c4ccc(C)cc4)c4ccccc34)n2)cc(C(=O)NCCN2CCOCC2)c1 [Example 8, 3-((4-((4-(3-(3-Isopropyl-1-(p-tolyl)-1H-pyrazol-5-yl)ureido)naphthalen-1-yl)oxy)pyrimidin-2-yl)amino)-5-methoxy-N-(2-morpholinoethyl)benzamide] |  |  |  |  |  |  |  |  |  |  |  |  |  |  |  |  |  |  | 
2 |  | C#Cc1cc(Nc2nccc(Oc3ccc(NC(=O)Nc4cc(C(C)C)nn4-c4ccc(C)cc4)c4ccccc34)n2)cc(C(=O)NCCN2CCOCC2)c1 [Example 46, 3-ethynyl-5-((4-((4-(3-(3-isopropyl-1-(p-tolyl)-1H-pyrazol-5-yl)ureido)naphthalen-1-yl)oxy)pyrimidin-2-yl)amino)-N-(2-morpholinoethyl)benzamide] | markedly reduced | marked reduction | significant activity | marked improvements |  |  |  |  |  |  |  |  |  |  |  |  |  |  | 
3 |  | C#Cc1cc(Nc2nccc(Oc3ccc(NC(=O)Nc4cc(C(C)(C)C)nn4-c4ccc(OC)cc4)c4ccccc34)n2)cc(C(=O)NCCN2CCOCC2)c1 [Example 77, 3-((4-((4-(3-(3-(tert-Butyl)-1-(4-methoxyphenyl)-1H-pyrazol-5-yl)ureido)-naphthalen-1-yl)oxy)pyrimidin-2-yl)amino)-5-ethynyl-N-(2-morpholinoethyl)benzamide] | markedly reduced | marked reduction | significant activity | marked improvements | 0.87 | 0.69 | 26 | 12 | 16 | 0.55 | did not have any effect on the binding | 0.94 | 189 | 120 | 0.82 | > 3 | 0.94 | 308 | high hepatic clearance
4 |  | C#Cc1cc(Nc2nccc(Oc3ccc(NC(=O)Nc4cc(C(C)(C)C)nn4-c4ccc(N(C)C)cc4)c4ccccc34)n2)cc(C(=O)NCCN2CCOCC2)c1 [Example 80, 3-((4-((4-(3-(3-(tert-Butyl)-1-(4-(dimethylamino)phenyl)-1H-pyrazol-5-yl)ureido)naphthalen-1-yl)oxy)pyrimidin-2-yl)amino)-5-ethynyl-N-(2-morpholinoethyl)-benzamide] |  |  |  |  | 0.73 | <0.61 | 11 | < 8 | < 11 | <0.44 |  | 0.91 | 146 | 91 | 0.77 | > 3 | 0.93 | 216 | high hepatic clearance
